In patent publication US20230365585A1, “BENZODIAZEPINE DERIVATIVES USEFUL IN TREATING A RESPIRATORY SYNCYTIAL VIRUS INFECTION” (priority 2020, published 2023):

Key:
[1] = Cell cytotoxicity CC50; type: cell-based; conditions: human; mean of at least two experiments
Excerpt: (§1) Plates were scanned and analysed using the Immunospot S6 Macro analyser, which is equipped with BioSpot analysis software for counting immunostained plaques (virospots). Plaque counts were used to calculate % infection relative to the mean of the plaque count in the virus control wells for RSV. […] Plaque EC50 and cell toxicity CC50 values are a mean of at least two experiments and figures are rounded to whole units.

[2] = tested on: RSV A2; test: RSV plaque reduction assay; type: cell-based, RSV (RSV A2 ECACC, 0709161v); conditions: human respiratory syncytial virus, HepG2, 48 h, Hep-G2 cells, RSV A2, 2 days; mean of at least two experiments
Procedure: Compounds were subjected to RSV plaque reduction assays according to the following protocol.
Hep-G2 cells (ECACC, 85011430) were passaged in flasks and seeded in 24-well plates in DMEM containing antibiotics and supplemented with 10% FBS. During inoculation and subsequent incubation, cells were cultured in DMEM containing 2% FBS. 100 plaque forming unit/well of RSV (RSV A2 ECACC, 0709161v) was mixed with eight serial dilutions of compound. Subsequently, 100 µL of the virus/compound mixtures was added to confluent Hep-G2 cell monolayers. The cells and virus/compound mixtures were incubated at 37° C. in a humidified 5% CO2 incubator for 2 h prior to removal of the inoculum and addition of 1 mL of overlay (DMEM containing 2% FBS and 0.8% CMC) containing compound dilutions. The cells and were incubated at 37° C. in a humidified 5% CO2 incubator for 2 days.
Cells were washed with PBS before adding 75%/25% v/v EtOH/MeOH, for 3 min. Fix ative was removed and plates were washed with PBS. A pre-titrated amount of the primary antibody was added in 200 µL PBS/2% milk powder, and plates incubated for 90 min at 37° C. The plates were washed 3 times with PBS/0.05% Tween20 before addition of rabbit anti-goat horse radish peroxidase in 200 µL PBS/2% milk powder, and incubated for 1 h at 37° C. Following three wash steps with PBS/0.05% Tween20, 200 µL ready-to-use TrueBlue was added and plates were incubated at rt for 10-15 min before washing with water. After removal of water, plates were air-dried in the dark.
as §1

SMILES: CC1CCCOc2c(C(=O)NC3N=C(c4ccccc4)c4cccc(F)c4NC3=O)c(-c3ccccc3F)nn21 (single isomer, unassigned) [Example 15-1, (8R*)-N-(9-fluoro-2-oxo-5-phenyl-1,3-dihydro-1,4-benzodiazepin-3-yl)-2-(2-fluorophenyl)-8-methyl-5,6,7,8-tetrahydropyrazolo[5,1-b][1,3]oxazepine-3-carboxamide]
- CC50 [1]: > 25000 nM
- EC50 [2]: 47 nM

SMILES: O=C(N[C@H]1N=C(c2ccccc2)c2cccc(F)c2NC1=O)c1c(-c2ccccc2F)nn2c1SCCCC2 [Example 20, N-[(3S)-9-fluoro-2-oxo-5-phenyl-2,3-dihydro-1H-1,4-benzodiazepin-3-yl]-2-(2-fluorophenyl)-5H,6H,7H,8H-pyrazolo[3,2-b][1,3]thiazepine-3-carboxamide]
- CC50 [1]: > 25000 nM
- EC50 [2]: 34 nM

SMILES: CCC1CCCn2nc(-c3ccc(C)nc3)c(C(=O)N[C@H]3N=C(c4ccccc4)c4ccccc4NC3=O)c2O1 (stereo partly drawn) [Example 26, 5-Ethyl-2-(6-methylpyridin-3-yl)-N-[(3S)-2-oxo-5-phenyl-1,3-dihydro-1,4-benzodiazepin-3-yl]-5,6,7,8-tetrahydropyrazolo[5,1-b][1,3]oxazepine-3-carboxamide]
- CC50 [1]: > 25000 nM
- EC50 [2]: 590 nM

SMILES: O=C(N[C@H]1N=C(c2ccccc2)c2cccc(F)c2NC1=O)c1c(-c2ccccc2F)nn2c1S(=O)(=O)CCCC2 [Example 21, N-[(3S)-9-fluoro-2-oxo-5-phenyl-2,3-dihydro-1H-1,4-benzodiazepin-3-yl]-2-(2-fluorophenyl)-4,4-dioxo-5H,6H,7H,8H-4λ^6-pyrazolo[3,2-b][1,3]thiazepine-3-carboxamide]
- CC50 [1]: > 25000 nM
- EC50 [2]: 377 nM

SMILES: CC(C)Nc1ccc(-c2nn3c(c2C(=O)N[C@H]2N=C(c4ccccc4)c4cccc(F)c4NC2=O)O[C@@H]2CC[C@H]3C2)cn1 (single isomer, unassigned) [Example 31-1, (1S*,8R*)-N-[(3S)-9-fluoro-2-oxo-5-phenyl-2,3-dihydro-1H-1,4-benzodiazepin-3-yl]-4-{6-[(propan-2-yl)amino]pyridin-3-yl}-7-oxa-2,3-diazatricyclo[6.2.1.02,6]undeca-3,5-diene-5-carboxamide]
- CC50 [1]: > 25000 nM
- EC50 [2]: 63 nM

SMILES: CCC1CCCn2nc(-c3ccccc3F)c(C(=O)N[C@H]3N=C(c4ccccc4)c4ccccc4NC3=O)c2O1 (single isomer, unassigned) [Example 24-1, (5R*)-5-ethyl-2-(2-fluorophenyl)-N-[(3S)-2-oxo-5-phenyl-2,3-dihydro-1H-1,4-benzodiazepin-3-yl]-5H,6H,7H,8H-pyrazolo[3,2-b][1,3]oxazepine-3-carboxamide]
- CC50 [1]: > 25000 nM
- EC50 [2]: 111 nM

SMILES: CCNc1ccc(-c2nn3c(c2C(=O)N[C@H]2N=C(c4ccccc4)c4ccccc4NC2=O)OC(C)CCC3)c(F)n1 (stereo partly drawn) [Example 10, 2-[6-(Ethylamino)-2-fluoropyridin-3-yl]-5-methyl-N-[(3S)-2-oxo-5-phenyl-1,3-dihydro-1,4-benzodiazepin-3-yl]-5,6,7,8-tetrahydropyrazolo[5,1-b][1,3]oxazepine-3-carboxamide]
- CC50 [1]: > 25000 nM
- EC50 [2]: 31 nM

SMILES: Cc1cncc(-c2nn3c(c2C(=O)N[C@H]2N=C(c4ccccc4)c4cccc(F)c4NC2=O)OCCCC3)c1 [Example 4, N-[(3S)-9-Fluoro-2-oxo-5-phenyl-1,3-dihydro-1,4-benzodiazepin-3-yl]-2-(5-methylpyridin-3-yl)-5,6,7,8-tetrahydropyrazolo[5,1-b][1,3]oxazepine-3-carboxamide]
- CC50 [1]: > 25000 nM
- EC50 [2]: 219 nM

SMILES: CC1CCCn2nc(-c3ccc(F)cc3F)c(C(=O)N[C@H]3N=C(c4ccccc4)c4cccc(F)c4NC3=O)c2O1 (stereo partly drawn) [Example 17, 2-(2,4-Difluorophenyl)-N-[(3S)-9-fluoro-2-oxo-5-phenyl-1,3-dihydro-1,4-benzodiazepin-3-yl]-5-methyl-5,6,7,8-tetrahydropyrazolo[5,1-b][1,3]oxazepine-3-carboxamide]
- CC50 [1]: > 25000 nM
- EC50 [2]: 27 nM

SMILES: CCC1CCCn2nc(-c3ccccc3F)c(C(=O)N[C@H]3N=C(c4ccccc4)c4ccccc4NC3=O)c2O1 (stereo partly drawn) [Example 24, 5-Ethyl-2-(2-fluorophenyl)-N-[(3S)-2-oxo-5-phenyl-1,3-dihydro-1,4-benzodiazepin-3-yl]-5,6,7,8-tetrahydropyrazolo[5,1-b][1,3]oxazepine-3-carboxamide]
- CC50 [1]: > 25000 nM
- EC50 [2]: 100 nM

SMILES: CCC1CCCn2nc(-c3ccc(C)nc3)c(C(=O)N[C@H]3N=C(c4ccccc4)c4ccccc4NC3=O)c2O1 (single isomer, unassigned) [Example 26-1, (5R*)-5-ethyl-2-(6-methylpyridin-3-yl)-N-[(3 S)-2-oxo-5-phenyl-2,3-dihydro-1H-1,4-benzodiazepin-3-yl]-5H,6H,7H,8H-pyrazolo[3,2-b][1,3]oxazepine-3-carboxamide]
- CC50 [1]: > 25000 nM
- EC50 [2]: 314 nM

SMILES: CC1CCCOc2c(C(=O)NC3N=C(c4ccccc4)c4ccccc4NC3=O)c(-c3ccccc3F)nn21 (single isomer, unassigned) [Example 14-1, (8R*)-2-(2-Fluorophenyl)-8-methyl-N-(2-oxo-5-phenyl-1,3-dihydro-1,4-benzodiazepin-3-yl)-5,6,7,8-tetrahydropyrazolo[5,1-b][1,3]oxazepine-3-carboxamide]
- CC50 [1]: > 25000 nM
- EC50 [2]: 61 nM

SMILES: CCNc1ccc(-c2nn3c(c2C(=O)N[C@H]2N=C(c4ccccc4)c4cccc(F)c4NC2=O)O[C@H](C)CCC3)c(F)n1 (single isomer, unassigned) [Example 11-1]
- CC50 [1]: > 25000 nM
- EC50 [2]: 22 nM

SMILES: CC(C)Nc1ccc(-c2nn3c(c2C(=O)N[C@H]2N=C(c4ccccc4)c4cccc(F)c4NC2=O)OCC(F)(F)CC3)cn1 [Example 23, 6,6-Difluoro-N-[(3S)-9-fluoro-2-oxo-5-phenyl-2,3-dihydro-1H-1,4-benzodiazepin-3-yl]-2-{6-[(propan-2-yl)amino]pyridin-3-yl}-5H,6H,7H,8H-pyrazolo[3,2-b][1,3]oxazepine-3-carboxamide]
- CC50 [1]: > 25000 nM
- EC50 [2]: 52 nM

SMILES: CC1(C)CCCn2nc(-c3ccccc3F)c(C(=O)N[C@H]3N=C(c4ccccc4)c4ccccc4NC3=O)c2O1 [Example 5, 2-(2-Fluorophenyl)-5,5-dimethyl-N-[(3S)-2-oxo-5-phenyl-1,3-dihydro-1,4-benzodiazepin-3-yl]-7,8-dihydro-6H-pyrazolo[5,1-b][1,3]oxazepine-3-carboxamide]
- CC50 [1]: > 25000 nM
- EC50 [2]: 91 nM

SMILES: CCNc1ccc(-c2nn3c(c2C(=O)N[C@H]2N=C(c4ccccc4)c4cccc(F)c4NC2=O)OC(C)CCC3)c(F)n1 (single isomer, unassigned) [Example 11-2, (5S*)-2-[6-(ethylamino)-2-fluoropyridin-3-yl]-N-[(3S)-9-fluoro-2-oxo-5-phenyl-1,3-dihydro-1,4-benzodiazepin-3-yl]-5-methyl-5,6,7,8-tetrahydropyrazolo[5,1-b][1,3]oxazepine-3-carboxamide]
- CC50 [1]: > 25000 nM
- EC50 [2]: 9 nM

SMILES: CCC1CCCn2nc(-c3ccccc3F)c(C(=O)N[C@H]3N=C(c4ccccc4)c4cccc(F)c4NC3=O)c2O1 (stereo partly shown) [Example 25, 5-Ethyl-N-[(3 S)-9-fluoro-2-oxo-5-phenyl-1,3-dihydro-1,4-benzodiazepin-3-yl]-2-(2-fluorophenyl)-5,6,7,8-tetrahydropyrazolo[5,1-b][1,3]oxazepine-3-carboxamide]
- CC50 [1]: > 25000 nM
- EC50 [2]: 83 nM

SMILES: CCC1CCCn2nc(-c3ccc(C)nc3)c(C(=O)N[C@H]3N=C(c4ccccc4)c4cccc(F)c4NC3=O)c2O1 (single isomer, unassigned) [Example 27-1, (5R*)-5-ethyl-N-[(3S)-9-fluoro-2-oxo-5-phenyl-2,3-dihydro-1H-1,4-benzodiazepin-3-yl]-2-(6-methylpyridin-3-yl)-5H,6H,7H,8H-pyrazolo[3,2-b][1,3]oxazepine-3-carboxamide]
- CC50 [1]: > 25000 nM
- EC50 [2]: 295 nM

SMILES: CC1CCCOc2c(C(=O)N[C@H]3N=C(c4ccccc4)c4ccccc4NC3=O)c(-c3ccccc3F)nn21 (stereo partly drawn) [Example 14, 2-(2-Fluorophenyl)-8-methyl-N-[(3S)-2-oxo-5-phenyl-1,3-dihydro-1,4-benzodiazepin-3-yl]-5,6,7,8-tetrahydropyrazolo[5,1-b][1,3]oxazepine-3-carboxamide]
- CC50 [1]: > 25000 nM
- EC50 [2]: 67 nM

SMILES: CCC1CCCn2nc(-c3ccccc3F)c(C(=O)N[C@H]3N=C(c4ccccc4)c4cccc(F)c4NC3=O)c2O1 (single isomer, unassigned) [Example 25-1, (5R*)-5-ethyl-2-(2-fluorophenyl)-N-[(3S)-9-fluoro-2-oxo-5-phenyl-1,3-dihydro-1,4-benzodiazepin-3-yl]-5,6,7,8-tetrahydropyrazolo[5,1-b][1,3]oxazepine-3-carboxamide]
- CC50 [1]: > 25000 nM
- EC50 [2]: 93 nM
